According to PMC2222622, “The DeoR-type transcriptional regulator SugR acts as a repressor for genes encoding the phosphoenolpyruvate:sugar phosphotransferase system (PTS) in Corynebacterium glutamicum” (BMC Molecular Biology, 2007):

Molecular target: T1, SugR (Corynebacterium glutamicum, UniProt Q8NP85)
T1 construct: gene Cgl1931; expressed in E. coli ER2566 from pTYB1 (pLGI1, 777 bp sugR without stop codon) as C-terminal intein fusion, tag self-cleaved, no extra residues
T1 sequence (Q8NP85 1-259): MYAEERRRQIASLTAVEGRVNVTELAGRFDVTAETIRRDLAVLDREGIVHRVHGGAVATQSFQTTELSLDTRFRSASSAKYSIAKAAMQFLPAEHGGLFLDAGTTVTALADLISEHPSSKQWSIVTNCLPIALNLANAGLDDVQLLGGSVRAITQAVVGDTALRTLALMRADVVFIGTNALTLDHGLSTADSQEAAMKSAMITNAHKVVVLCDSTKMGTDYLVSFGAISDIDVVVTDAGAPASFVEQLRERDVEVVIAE
Assay: EMSA, release of SugR from Cy3-labelled DNA fragment I2
Assay type: binding
Conditions: negative effector; 15 pmol SugR, 0.05 pmol DNA I2 (ptsI-cg2118 intergenic region), 1 mM MgCl2, pH 7.5, RT; threshold of effect, not an IC50

O=P(O)(O)OC[C@H]1OC(O)[C@H](O)[C@@H](O)[C@@H]1O (stereo partly shown) [G-6-P, glucose-6-phosphate]
concentration needed for significant effect: > 10 mM
